Assay results taken from patent US20250215030A1, “STAT MODULATORS AND USES THEREOF” (Recludix Pharma, Inc., priority 2022, published 2025).
pIC50: −log10 of the molar value.

Columns and labels:
[1] = biological target: T1, pSTAT6 (pY641-STAT6) (Homo sapiens, UniProt P42226); assay: MSD-pSTAT-PBMC Assay (pSTAT6, IL-4 stimulated); assay type: cell-based; conditions: compound 3 hrs, then 1 ng/mL IL-4 for 10 min
T1 construct: host or cells: cryopreserved PBMC
T1 sequence (P42226 1-847): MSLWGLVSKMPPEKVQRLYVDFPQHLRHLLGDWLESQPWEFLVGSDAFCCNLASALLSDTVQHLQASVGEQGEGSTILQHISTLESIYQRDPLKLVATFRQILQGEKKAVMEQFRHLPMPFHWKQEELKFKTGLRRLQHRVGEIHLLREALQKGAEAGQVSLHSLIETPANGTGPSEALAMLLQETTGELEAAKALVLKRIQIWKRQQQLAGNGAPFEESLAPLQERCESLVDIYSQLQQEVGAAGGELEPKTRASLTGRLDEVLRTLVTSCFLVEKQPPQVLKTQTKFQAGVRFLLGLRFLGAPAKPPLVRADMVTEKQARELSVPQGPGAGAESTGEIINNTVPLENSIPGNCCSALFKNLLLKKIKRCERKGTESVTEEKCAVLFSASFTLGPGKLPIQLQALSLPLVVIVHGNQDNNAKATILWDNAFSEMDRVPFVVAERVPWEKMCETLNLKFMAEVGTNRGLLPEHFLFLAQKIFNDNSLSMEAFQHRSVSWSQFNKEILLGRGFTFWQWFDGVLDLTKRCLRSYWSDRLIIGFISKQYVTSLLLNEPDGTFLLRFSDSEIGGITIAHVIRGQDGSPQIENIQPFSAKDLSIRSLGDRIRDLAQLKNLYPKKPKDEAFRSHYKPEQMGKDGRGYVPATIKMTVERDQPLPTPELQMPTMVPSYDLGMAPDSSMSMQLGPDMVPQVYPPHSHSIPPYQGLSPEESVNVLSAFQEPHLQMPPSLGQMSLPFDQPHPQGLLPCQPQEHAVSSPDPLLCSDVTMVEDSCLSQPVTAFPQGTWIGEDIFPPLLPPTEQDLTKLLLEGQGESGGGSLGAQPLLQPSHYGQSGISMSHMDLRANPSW
Summary of the method: (§1)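 Phospho-STAT levels captured on anti-STAT3 or anti-STAT6 plates and detected with anti-pY705 or anti-pY641 antibodies (MSD read-out). Cryopreserved human PBMCs received compound for 3 h before a 10 min pulse of IL-6 (10 ng/mL, STAT3) or IL-4 (1 ng/mL, STAT6). IC50 fitted after unstimulated-background subtraction and DMSO normalization.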

[2] = biological target: T2, pSTAT3 (pY705-STAT3) (Homo sapiens, UniProt P40763); assay: MSD-pSTAT-PBMC Assay (pSTAT3, IL-6 stimulated); assay type: cell-based; conditions: PBMC, compound 3 hrs, then 10 ng/mL IL-6 for 10 min; MSD pY705-STAT3; read-out: pSTAT3
T2 construct: host or cells: cryopreserved PBMC
T2 sequence (P40763 whole entry): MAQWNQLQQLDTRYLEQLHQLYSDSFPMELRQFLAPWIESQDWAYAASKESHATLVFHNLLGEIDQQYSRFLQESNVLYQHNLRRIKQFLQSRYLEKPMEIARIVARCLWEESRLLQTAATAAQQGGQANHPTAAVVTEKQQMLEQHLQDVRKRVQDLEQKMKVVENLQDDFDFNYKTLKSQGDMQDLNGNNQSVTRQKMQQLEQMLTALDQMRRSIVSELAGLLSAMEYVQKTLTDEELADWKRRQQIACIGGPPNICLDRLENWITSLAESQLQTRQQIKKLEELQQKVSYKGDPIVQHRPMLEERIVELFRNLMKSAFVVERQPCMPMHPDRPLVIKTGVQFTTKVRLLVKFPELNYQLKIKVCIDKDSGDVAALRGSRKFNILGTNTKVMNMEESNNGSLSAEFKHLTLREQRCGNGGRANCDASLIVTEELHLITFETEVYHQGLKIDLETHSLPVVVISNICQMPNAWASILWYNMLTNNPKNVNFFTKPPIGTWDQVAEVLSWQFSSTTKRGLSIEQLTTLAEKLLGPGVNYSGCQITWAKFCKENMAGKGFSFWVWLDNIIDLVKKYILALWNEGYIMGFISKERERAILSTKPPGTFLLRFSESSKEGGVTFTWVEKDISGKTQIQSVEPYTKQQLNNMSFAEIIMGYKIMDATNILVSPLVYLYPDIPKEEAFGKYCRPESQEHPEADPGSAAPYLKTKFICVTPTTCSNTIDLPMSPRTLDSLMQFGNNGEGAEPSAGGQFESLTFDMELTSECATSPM
Summary of the method: as §1

SMILES | pIC50 [1] | pIC50 [2]
CC(C)OC(=O)OCOP(=O)(OCOC(=O)OC(C)C)C(F)(F)c1ccc2sc(C(=O)N[C@H]3C[C@@H]4C[C@@H]4C[C@H]4CC[C@@H](C(=O)N5CC(C(=O)N6CCOCC6)C5)N4C3=O)cc2c1 [Compound 176, (((difluoro(2-(((3S,6S,7aS, 8aR,9aR)-3-(3-(morpholine-4-carbonyl)azetidine-1-carbonyl)-5-oxodecahydro-1H-cyclopropa[d]pyrrolo[1,2-a]azocin-6-yl)carbamoyl)benzo[b]thiophen-5-yl)methyl)phosphoryl)bis(oxy)) bis(methylene) diisopropyl bis(carbonate)] | < 5.52 | > 7.00
CC(C)(C)C(=O)SCCOP(=O)(Cc1ccc2sc(C(=O)N[C@H]3C[C@@H]4C[C@@H]4C[C@H]4CC[C@@H](C(=O)N5CC(C(=O)N6CCOCC6)C5)N4C3=O)cc2c1)OCCSC(=O)C(C)(C)C [Compound 144, S,S′-(((((2-(((3S,6S,7aS, 8aR,9aR)-3-(3-(morpholine-4-carbonyl)azetidine-1-carbonyl)-5-oxodecahydro-1H-cyclopropa[d]pyrrolo[1,2-a]azocin-6-yl)carbamoyl)benzo[b]thiophen-5-yl)methyl)phosphoryl)bis(oxy))bis(ethane-2,1-diyl)) bis(2,2-dimethyl-propanethioate)] | < 5.52 | 6.00 to 7.00
CC(C)(C)C(=O)OCOP(=O)(Cc1ccc2sc(C(=O)N[C@H]3C[C@@H]4C[C@@H]4C[C@H]4CC[C@@H](C(=O)N5CC(n6ccnc6)C5)N4C3=O)cc2c1)OCOC(=O)C(C)(C)C [Compound 156, ((((2-(((3S,6S,7aS, 8aR,9aR)-3-(3-(1H-imidazol-1-yl)azetidine-1-carbonyl)-5-oxodecahydro-1H-cyclopropa[d]pyrrolo[1,2-a]azocin-6-yl)carbamoyl)benzo[b]thiophen-5-yl)methyl)phosphoryl)bis(oxy)) bis(methylene) bis(2,2-dimethyl-propanoate)] | < 5.52 | > 7.00
C[C@@H](NP(=O)(Cc1ccc2sc(C(=O)N[C@H]3C[C@@H]4C[C@@H]4C[C@H]4CC[C@@H](C(=O)N5CC(C(=O)N6CCOCC6)C5)N4C3=O)cc2c1)Oc1ccccc1)C(=O)OCc1ccccc1 (stereo partly drawn) [Compound 143, benzyl (((2-(((3S,6S,7aS, 8aR,9aR)-3-(3-(morpholine-4-carbonyl)azetidine-1-carbonyl)-5-oxodecahydro-1H-cyclopropa [d]pyrrolo[1,2-a]azocin-6-yl)carbamoyl)benzo[b]thiophen-5-yl)methyl) (phenoxy)phosphoryl)-D-alaninate] | < 5.52 | 6.00 to 7.00
CC(C)CC(=O)SCCOP(=O)(OCCSC(=O)CC(C)C)C(F)(F)c1ccc2sc(C(=O)N[C@H]3C[C@H]4C[C@H]4C[C@H]4CC[C@@H](C(=O)N[C@@H]5CCN(c6cccnc6)C5)N4C3=O)cc2c1 [Compound 224, S,S′-((((difluoro(2-(((3S,6S,7aR, 8aS,9aR)-5-oxo-3-(((R)-1-(pyridin-3-yl)pyrrolidin-3-yl)carbamoyl)decahydro-1H-cyclopropa[d]pyrrolo[1,2-a]azocin-6-yl)carbamoyl)benzo[b]thiophen-5-yl)methyl)phosphoryl)bis(oxy))bis(ethane-2,1-diyl)) bis(3-methylbutane thioate)] | < 5.52 | > 7.00
CC(C)(C)C(=O)SCCOP(=O)(OCCSC(=O)C(C)(C)C)C(F)(F)c1ccc2sc(C(=O)NC3CC4CC4CC4CCC(C(=O)N5CC(n6ccnc6)C5)N4C3=O)cc2c1 [Compound 180, S,S′-(((((2-(((3S,6S,7aR, 8aS,9aR)-3-(3-(1H-imidazol-1-yl)azetidine-1-carbonyl)-5-oxodecahydro-1H-cyclopropa[d]pyrrolo[1,2-a]azocin-6-yl)carbamoyl)benzo[b]thiophen-5-yl)difluoromethyl)phosphoryl)bis(oxy))bis(ethane-2,1-diyl)) bis(2,2-dimethyl-propanethioate)] | < 5.52 | > 7.00
CC(C)(C)C(=O)SCCOP(=O)(OCCSC(=O)C(C)(C)C)C(F)(F)c1ccc2sc(C(=O)N[C@H]3C[C@H]4C[C@H]4C[C@H]4CC[C@@H](C(=O)N5CC(c6c[nH]cn6)C5)N4C3=O)cc2c1 [Compound 219, S,S′-(((((2-(((3S,6S,7aR, 8aS,9aR)-3-(3-(1H-imidazol-4-yl)azetidine-1-carbonyl)-5-oxodecahydro-1H-cyclopropa[d]pyrrolo[1,2-a]azocin-6-yl)carbamoyl)benzo[b]thiophen-5-yl)difluoromethyl)phosphoryl)bis(oxy))bis(ethane-2,1-diyl)) bis(2,2-dimethyl-propanethioate)] | 6.00 to 7.00 | > 7.00
CC(C)(CO)C(=O)SCCOP(=O)(Cc1ccc2sc(C(=O)N[C@H]3C[C@@H]4C[C@@H]4C[C@H]4CC[C@@H](C(=O)N5CC(C(=O)N6CCOCC6)C5)N4C3=O)cc2c1)OCCSC(=O)C(C)(C)CO [Compound 133, S,S′-(((((2-(((3S,6S,7aS, 8aR,9aR)-3-(3-(morpholine-4-carbonyl)azetidine-1-carbonyl)-5-oxodecahydro-1H-cyclopropa[d]pyrrolo[1,2-a]azocin-6-yl)carbamoyl)benzo[b]thiophen-5-yl)methyl)phosphoryl)bis(oxy))bis(ethane-2,1-diyl)) bis(3-hydroxy-2,2-dimethyl-propane-thioate] | < 5.52 | < 5.52
CC(C)(C)C(=O)SCCOP(=O)(OCCSC(=O)C(C)(C)C)C(F)(F)c1ccc2sc(C(=O)N[C@H]3C[C@@H]4C[C@@H]4C[C@H]4CC[C@@H](C(=O)N5CC(C(=O)N6CCOCC6)C5)N4C3=O)cc2c1 [Compound 171, S,S′-((((difluoro(2-(((3S,6S,7aS, 8aR,9aR)-3-(3-(morpholine-4-carbonyl)azetidine-1-carbonyl)-5-oxodecahydro-1H-cyclopropa[d]pyrrolo[1,2-a]azocin-6-yl)carbamoyl)benzo[b]thiophen-5-yl)methyl)phosphoryl)bis(oxy))bis(ethane-2,1-diyl)) bis(2,2-dimethyl-propanethioate)] | < 5.52 | > 7.00
CC(C)(C)C(=O)SCCOP(=O)(OCCSC(=O)C(C)(C)C)C(F)(F)c1ccc2sc(C(=O)N[C@H]3C[C@H]4C[C@H]4C[C@H]4CC[C@@H](C(=O)N5CCN(C6CCOCC6)CC5)N4C3=O)cc2c1 [Compound 220, S,S′-((((difluoro(2-(((3S,6S,7aR, 8aS,9aR)-5-oxo-3-(4-(tetrahydro-2H-pyran-4-yl)piperazine-1-carbonyl)decahydro-1H-cyclopropa[d]pyrrolo[1,2-a]azocin-6-yl)carbamoyl)benzo[b]thiophen-5-yl)methyl)phosphoryl)bis(oxy))bis(ethane-2,1-diyl)) bis(2,2-dimethyl-propanethioate)] | < 5.52 | > 7.00
CC(C)OC(=O)OCOP(=O)(Cc1ccc2sc(C(=O)N[C@H]3C[C@@H]4C[C@@H]4C[C@H]4CC[C@@H](C(=O)N5CC(n6ccnc6)C5)N4C3=O)cc2c1)OCOC(=O)OC(C)C [Compound 157, ((((2-(((3S,6S,7aS, 8aR,9aR)-3-(3-(1H-imidazol-1-yl)azetidine-1-carbonyl)-5-oxodecahydro-1H-cyclopropa[d]pyrrolo[1,2-a]azocin-6-yl)carbamoyl)benzo[b]thiophen-5-yl)methyl)phosphoryl)bis(oxy)) bis(methylene) diisopropyl bis(carbonate)] | < 5.52 | > 7.00
CC(C)(C)C(=O)OCOP(=O)(OCOC(=O)C(C)(C)C)C(F)(F)c1ccc2sc(C(=O)N[C@H]3C[C@@H]4C[C@@H]4C[C@H]4CC[C@@H](C(=O)N5CC6(CN(C(=O)Cc7ccccc7)C6)C5)N4C3=O)cc2c1 [Compound 210, (((difluoro(2-(((3S,6S,7aS, 8aR,9aR)-5-oxo-3-(6-(2-phenyl-acetyl)-2,6-diazaspiro[3.3]heptane-2-carbonyl)decahydro-1H-cyclopropa[d]pyrrolo[1,2-a]azocin-6-yl)carbamoyl)benzo[b]thiophen-5-yl)methyl)phosphoryl)bis(oxy)) bis(methylene) bis(2,2-dimethyl-propanoate)] | 6.00 to 7.00 | > 7.00
